Reference: patent US20200009163A1, “POLYPHOSPHATES AS INHIBITORS OF CALCIUM CRYSTALLIZATION” (priority 2017, published 2020)

Columns and labels:
[1] = ISE (ion selective electrode) measurement of inhibition of COM crystallization from aqueous solution; conditions: FIG. 3
Description: FIG. 3 depicts experimental results obtained using an example of a LTPP compound (Na5P3O10) and an example of a HMP compound ((NaPO3)6) to inhibit crystallization of […] from aqueous solution. Results for a citrate compound (Na3C6H5O7), which is commonly used in the treatment of kidney stones, is presented for purposes of comparison. In FIG. 3, the x-axis represents a measure of concentration (micromolar (μM) concentration on a logarithmic scale) of the inhibitor present in the solution. The y-axis represents percent inhibition (% reduction in the rate of crystallization) of COM crystallization as compared to a control solution having no inhibitor compounds therein. The effect of the inhibitors on COM growth was estimated using ISE (ion selective electrode) measurements. This measurement technique enables quantification of the extent of inhibition on calcium crystal growth as a function of inhibitor concentration. More specifically, ISE measures free calcium concentration in solution as a function of time to measure the rate of crystallization in the absence and presence of inhibitor. This technique can be used to measure the effectiveness of the polyphosphates and polyphosphate derivatives at inhibiting or modifying calcium crystal growth. The values of “% inhibition” that were obtained by this technique, and presented in FIG. 3 for the different combinations of inhibitor type and concentration, reflect rates of crystallization that have been normalized with respect to the rate of crystallization for a control solution (e.g., inhibitor concentration of zero). The % inhibition refers to the averages of at least 3 separate experiments. The solutions tested were aqueous solutions of calcium chloride (CaCl2)), sodium oxalate (Na2C2O4), and sodium chloride (NaCl). The tested solutions further included the inhibitor/modifier compound at the stated concentration level.

[2] = Bulk calcium oxalate crystallization, optical microscope images and crystal frequency; conditions: for calcium oxalate crystals observed (optical microscope): control crystals approximately 25-50 μm along c-axis
Protocol: (§1) FIG. 4A depicts optical microscope images showing results of calcium oxalate crystallization from a control solution and solutions including LTPP Na5P3O10 at concentrations of 5 μM and 15 μM. FIG. 4B depicts effects of Na5P3O10 concentrations on calcium oxalate crystal frequency. […] Crystals formed from the control solution were approximately 25-50 μm in size as measured along the c-axis, which is the longest dimension.
as §1, with “FIG. 5A” for “FIG. 4A”, “including HMP (NaPO3)6” for “including LTPP Na5P3O10”, “of 0.3” for “of 5”, “and 0.7” for “and 15”, “FIG. 5B” for “FIG. 4B”, “of (NaPO3)6” for “of Na5P3O10”
FIG. 6 depicts optical microscope images showing results of calcium oxalate crystallization during bulk studies at different concentrations of LTPP. The leftmost image is a representative control crystal.

## O=C(O)CC(O)(CC(=O)O)C(=O)O [citrate, Na3C6H5O7, reference compound]
[1]; inhibitor concentration of around 320 μM, maximum reached even at much higher concentrations
  percent inhibition (% reduction in the rate of crystallization) of COM crystallization: about 60%

## (NaPO3)6 [HMP]
[2]; 0.7 μM inhibitor, FIG. 5A
  calcium oxalate crystals observed (optical microscope): Very small crystals
[2]; higher HMP solution concentrations (above 0.7 μM), FIG. 5B
  calcium oxalate crystal frequency: no definitive crystals being observed
[1]; inhibitor concentration of less than about 1 μM, vs control solution without inhibitor
  percent inhibition (% reduction in the rate of crystallization) of COM crystallization: approximately 100%

## Na5P3O10 [LTPP]
[2]; 5 μM and 15 μM inhibitor vs control crystal, FIG. 6
  crystal morphology (habit) of calcium oxalate crystals: morphology of the crystals change with increasing inhibitor concentration
[2]; 15 μM inhibitor, FIG. 4A
  calcium oxalate crystals observed (optical microscope): very small crystals
[2]; higher LTPP solution concentrations (above 15 μM), FIG. 4B
  calcium oxalate crystal frequency: no definitive crystals being observed
[1]; inhibitor concentration range of about 5 μM to about 125 μM, vs control solution without inhibitor
  percent inhibition (% reduction in the rate of crystallization) of COM crystallization: 30-100%
